{"source": "patent US6703388B2", "about": "“Nitrogen-containing tricyclic compounds and drugs containing the same” (Eisai Co., Ltd., priority 1996, dated 2004)", "data": [{"tested_on": "RBL-2H3 cells", "assay": "Inhibition of serotonin liberation from IgE-sensitized RBL-2H3 cells after antigen stimulation", "format": "cell-based, rat", "conditions": "Rattus norvegicus, RBL-2H3, read-out: IC50 (μM) in serotonin liberation from RBL-2H3 cells", "source_text": "(§1) IgE-sensitized RBL-2H3 cells (i.e., a cell line originating in rat cells) release and produce not only histamine and serotonin but also cytokines such as TNF α and prostaglandins which are inflammatory mediators after stimulation with IgE sepecific antibody. In this experimental system, inhibitory effects on various mediators release were examined by using serotonin as an indication.\n(§2) The cells were beforehand labeled with [^3H]-labeled serotonin and, at the same time, sensitized with the IgE antibody. After incubating with the compounds of the present invention, the cells were stimulated with the specific antigen. Then the inhibitory activity of each compound was calculated from the amount of the [^3H]-labeled serotonin thus liberated into the medium and the amount of [^3H]-labeled serotonin liberated when no compound of the present invention was added.", "units": {"IC50": "µM"}, "values": [{"smiles": "Cc1ccc2c(c1C)N(CCCNCc1cccc(C(=O)O)c1O)c1ccccc1[S+]2[O-]", "note": "(stereo not shown) [Example 31]", "IC50": 0.5}]}, {"tested_on": "RBL-2H3 cells", "assay": "Inhibition of serotonin liberation from IgE-sensitized RBL-2H3 cells after antigen stimulation", "format": "cell-based, rat", "conditions": "Rattus norvegicus; [3H]-serotonin release, IgE-sensitized RBL-2H3 cells, antigen stimulation; read-out: IC50 (μM) in serotonin liberation from RBL-2H3 cells", "source_text": "as §1, §2", "units": {"IC50": "µM"}, "values": [{"smiles": "Cc1ccc2c(c1C)N(CCCN)c1ccccc1S2", "note": "[Example 1, 1,2-Dimethyl-10-(3-aminopropyl)phenothiazine]", "IC50": 5}, {"smiles": "Cc1ccc2c(c1C)N(Cc1cccc(CN)n1)c1ccccc1S2", "note": "[Example 3]", "IC50": 10}, {"smiles": "Cc1ccc2c(c1C)N(CCCN(CC(=O)O)Cc1ccccc1)c1ccccc1S2", "note": "[Example 5]", "IC50": 5}, {"smiles": "Cc1ccc2c(c1C)N(Cc1cccc(CNCc3ccccc3)n1)c1ccccc1S2", "note": "[Example 6]", "IC50": 10}, {"smiles": "Cc1ccc2c(c1C)N(Cc1cccc(CNCc3ncc[nH]3)n1)c1ccccc1S2", "note": "[Example 7]", "IC50": 8}, {"smiles": "Cc1ccc2c(c1C)N(CCCN)c1cc(CCO)ccc1[S+]2[O-]", "note": "(stereo not shown) [Example 9]", "IC50": "< 1"}, {"smiles": "Cc1ccc2c(c1C)N(CCCN)c1cc(Br)ccc1[S+]2[O-]", "note": "(stereo not shown) [Example 10]", "IC50": 3}, {"smiles": "COc1ccc(O)c(CNCCCN2c3ccccc3[S+]([O-])c3ccc(C)c(C)c32)c1O", "note": "(stereo not shown) [Example 38]", "IC50": 8}, {"smiles": "Cc1ccc2c(c1C)N(CCCNCc1cc(Br)cc(F)c1O)c1ccccc1[S+]2[O-]", "note": "(stereo not shown) [Example 40]", "IC50": 5}, {"smiles": "Cc1ccc2c(c1C)N(CCCNCc1cc(Br)cc(Cl)c1O)c1ccccc1[S+]2[O-]", "note": "(stereo not shown) [Example 41]", "IC50": 5}, {"smiles": "Cc1ccc2c(c1C)N(CCCNCC1CC1)c1ccccc1[S+]2[O-]", "note": "(stereo not shown) [Example 43]", "IC50": 4}, {"smiles": "Cc1ccc2c(c1C)N(CCCNCc1ccccc1Cl)c1ccccc1[S+]2[O-]", "note": "(stereo not shown) [Example 52]", "IC50": 3}, {"smiles": "Cc1ccc2c(c1C)N(CCCNCc1ccccc1C(=O)O)c1ccccc1[S+]2[O-]", "note": "(stereo not shown) [Example 55]", "IC50": 8}, {"smiles": "Cc1ccc2c(c1C)N(CCCNCc1ccccc1OCC(=O)O)c1ccccc1[S+]2[O-]", "note": "(stereo not shown) [Example 56]", "IC50": 3}, {"smiles": "Cc1ccc2c(c1C)N(CCCNCc1cccc(-c3nnn[nH]3)c1)c1ccccc1[S+]2[O-]", "note": "(stereo not shown) [Example 57]", "IC50": 2}, {"smiles": "Cc1ccc2c(c1C)N(CCCNCc1ncc[nH]1)c1ccccc1[S+]2[O-]", "note": "(stereo not shown) [Example 63]", "IC50": 3}, {"smiles": "Cc1ccc2c(c1C)N(CCCNCc1nc3ccccc3s1)c1ccccc1[S+]2[O-]", "note": "(stereo not shown) [Example 68]", "IC50": 4}, {"smiles": "Cc1ccc2c(c1C)N(CCCNCc1ccccn1)c1ccccc1[S+]2[O-]", "note": "(stereo not shown) [Example 70]", "IC50": 2}, {"smiles": "Cc1cccc(CNCCCN2c3ccccc3[S+]([O-])c3ccc(C)c(C)c32)n1", "note": "(stereo not shown) [Example 71]", "IC50": 8}, {"smiles": "Cc1ccc2c(c1C)N(CCCNCc1ncco1)c1ccccc1[S+]2[O-]", "note": "(stereo not shown) [Example 72]", "IC50": 8}, {"smiles": "Cc1ccc2c(c1C)N(CCCNCc1[nH]cnc1C)c1ccccc1[S+]2[O-]", "note": "(stereo not shown) [Example 74]", "IC50": 2}, {"smiles": "Cc1ccc2c(c1C)N(CCCNCc1nccnc1Cl)c1ccccc1[S+]2[O-]", "note": "(stereo not shown) [Example 75]", "IC50": 6}, {"smiles": "CCOC(=O)/C(C)=C/c1cc(OC)c(CNCCCN2c3ccccc3[S+]([O-])c3ccc(C)c(C)c32)s1", "note": "(stereo not shown) [Example 76]", "IC50": 3}, {"smiles": "COc1ncc(CNCCCN2c3ccccc3[S+]([O-])c3ccc(C)c(C)c32)c(OC)n1", "note": "(stereo not shown) [Example 78]", "IC50": 4}, {"smiles": "COc1cc(C(N)=O)sc1CNCCCN1c2ccccc2[S+]([O-])c2ccc(C)c(C)c21", "note": "(stereo not shown) [Example 79]", "IC50": 2}, {"smiles": "Cc1ccc2c(c1C)N(CCCNCc1ccccc1)c1ccc(C#N)cc1[S+]2[O-]", "note": "(stereo not shown) [Example 88]", "IC50": 1}, {"smiles": "COc1ccsc1CNCCCN1c2ccc(C#N)cc2[S+]([O-])c2ccc(C)c(C)c21", "note": "(stereo not shown) [Example 89]", "IC50": 2}, {"smiles": "COC(=O)c1cccc2c1[S+]([O-])c1ccc(C)c(C)c1N2CCCNCc1ccccc1", "note": "(stereo not shown) [Example 91]", "IC50": 5}, {"smiles": "Cc1ccc2c(c1C)N(CCCNCc1ccc(Cl)cc1Cl)c1cc(CCO)ccc1[S+]2[O-]", "note": "(stereo not shown) [Example 93]", "IC50": 3}, {"smiles": "Cc1ccc2c(c1C)N(CCCNCc1ccc(F)cc1F)c1cc(CCO)ccc1[S+]2[O-]", "note": "(stereo not shown) [Example 95]", "IC50": 3}, {"smiles": "Cc1ccc2c(c1C)N(CCCNCc1ccccc1)c1cc(-c3nn[nH]n3)ccc1[S+]2[O-]", "note": "(stereo not shown) [Example 98]", "IC50": 0.5}, {"smiles": "COc1cc2c(c(C)c1C)N(CCCNCc1ccccc1)c1ccccc1[S+]2[O-]", "note": "(stereo not shown) [Example 99]", "IC50": 5}, {"smiles": "COc1ccsc1CNCCCN1c2ccccc2[S+]([O-])c2c(C)cc(C)c(C)c21", "note": "(stereo not shown) [Example 101]", "IC50": 5}, {"smiles": "Cc1ccc2c(c1C)N(CCCN1CCOCC1)c1ccccc1[S+]2[O-]", "note": "(stereo not shown) [Example 103, 1,2-Dimethyl-10-[3-(4-morpholino)propyl]phenothiazine-5Oxide]", "IC50": "< 3"}, {"smiles": "Cc1ccc2c(c1C)N(CCCN1CCC(O)CC1)c1ccccc1[S+]2[O-]", "note": "(stereo not shown) [Example 106]", "IC50": 2}, {"smiles": "Cc1ccc2c(c1C)N(CCCN1CCC(N(C)C)CC1)c1ccccc1[S+]2[O-]", "note": "(stereo not shown) [Example 107]", "IC50": 2}, {"smiles": "Cc1ccc2c(c1C)N(CCCN(CC(=O)O)Cc1ccccc1)c1ccccc1[S+]2[O-]", "note": "(stereo not shown) [Example 109]", "IC50": 3}, {"smiles": "Cc1ccc2c(c1C)N(CCCN1CCN(Cc3ccccc3)C(C(=O)O)C1)c1ccccc1[S+]2[O-]", "note": "(stereo not shown) [Example 110]", "IC50": 1}, {"smiles": "Cc1ccc2c(c1C)N(CCCN1CCN(C(C(=O)O)c3ccccc3)CC1)c1ccccc1[S+]2[O-]", "note": "(stereo not shown) [Example 111]", "IC50": 2}, {"smiles": "Cc1ccc2c(c1C)N(CCCN1CCN(Cc3ccccn3)CC1)c1ccccc1[S+]2[O-]", "note": "(stereo not shown) [Example 112]", "IC50": 1}, {"smiles": "Cc1ccc2c(c1C)N(CCCNc1ccccc1O)c1ccccc1[S+]2[O-]", "note": "(stereo not shown) [Example 116]", "IC50": 10}, {"smiles": "Cc1ccc2c(c1C)N(CCCN1CCN(C(CO)c3ccccc3)CC1)c1ccccc1[S+]2[O-]", "note": "(stereo not shown) [Example 117]", "IC50": 2}, {"smiles": "Cc1ccc2c(c1C)N(CCCNc1nc[nH]n1)c1ccccc1[S+]2[O-]", "note": "(stereo not shown) [Example 118]", "IC50": 10}, {"smiles": "Cc1ccc2c(c1C)N(CCCn1cnc(N)n1)c1ccccc1[S+]2[O-]", "note": "(stereo not shown) [Example 119]", "IC50": 6}, {"smiles": "Cc1ccc2c(c1C)N(CCCNCc1nccs1)c1ccccc1[S+]2[O-]", "note": "(stereo not shown) [Example 120]", "IC50": 3}, {"smiles": "Cc1ccc2c(c1C)N(Cc1ccc(CN3CCC(C(=O)O)CC3)cc1)c1ccccc1[S+]2[O-]", "note": "(stereo not shown) [Example 121]", "IC50": 1}, {"smiles": "C#CCNCCCN1c2ccccc2[S+]([O-])c2ccc(C)c(C)c21", "note": "(stereo not shown) [Example 126]", "IC50": 3}, {"smiles": "Cc1ccc2c(c1C)N(CCCNCC#N)c1ccccc1[S+]2[O-]", "note": "(stereo not shown) [Example 130]", "IC50": 3}, {"smiles": "Cc1ccc2c(c1C)N(CCCN(CC#N)CC#N)c1ccccc1[S+]2[O-]", "note": "(stereo not shown) [Example 131]", "IC50": 3}, {"smiles": "Cc1ccc2c(c1C)N(CCCNC(C(=O)O)c1ccccc1)c1ccccc1[S+]2[O-]", "note": "(stereo not shown) [Example 133]", "IC50": 1}, {"smiles": "Cc1ccc2c(c1C)N(CCCN(CC(=O)O)Cc1ccccc1O)c1ccccc1[S+]2[O-]", "note": "(stereo not shown) [Example 135]", "IC50": 2}, {"smiles": "Cc1ccc2c(c1C)N(CCNCc1cc(C)c(O)c(C)c1)c1ccccc1[S+]2[O-]", "note": "(stereo not shown) [Example 148]", "IC50": 8}, {"smiles": "COc1cc(CNCCN2c3ccccc3[S+]([O-])c3ccc(C)c(C)c32)cc(OC)c1O", "note": "(stereo not shown) [Example 149]", "IC50": 8}, {"smiles": "Cc1ccc2c(c1C)N(CCNCc1ccc(Cl)c(O)c1Cl)c1ccccc1[S+]2[O-]", "note": "(stereo not shown) [Example 153]", "IC50": 6}, {"smiles": "COCOc1cccnc1CNCCN1c2ccccc2[S+]([O-])c2ccc(C)c(C)c21", "note": "(stereo not shown) [Example 160]", "IC50": 2}, {"smiles": "Cc1ccc2c(c1C)N(CCCN(C)Cc1cc(Cl)cc(Cl)c1O)c1ccccc1[S+]2[O-]", "note": "(stereo not shown) [Example 172]", "IC50": 3}]}, {"tested_on": "human basophils", "assay": "Inhibition of mediator (histamine, peptide leukotriene) liberation from human basophils stimulated with mite antigen", "format": "cell-based", "conditions": "histamine, enzyme immunoassay, read-out: IC50 (μM) in mediator liberation from human basophils: histamine", "method": "(§3) 6 ml of 6% dextran (for separating leukocytes, having a high molecular weight) was added to 20 ml of heparinized blood. After stirring well, the resulting mixture was allowed to stand at 37° C. for 30 min and thus erythrocytes were precipitated. The upper layer was taken up and phosphate buffered saline (D-PBS) was added thereto followed by centrifugation at 185 g for 8 minutes to give a crude leukocyte fraction. These cells were subjected to hypotonic hematolysis and then suspended in D-PBS(+) containing 0.1%-BSA. The resulting suspension was used in the subsequent experiment as the leukocyte fraction containing basophils. 0.4 ml of this cell suspension was preliminarily heated to 37° C. for 5 min and then 0.05 ml of a specimen solution was added thereto followed by a pretreatment at 37° C. for 15 min. Next, 0.05 ml of a mite antigen solution was added thereto to induce an antigen-antibody reaction. After 10 min, the reaction was ceased by ice-cooling. Then the reaction mixture was centrifuged at 185 g for 10 min and histamine and peptide leukotrienes in the resulting supernatant were determined by using enzyme immunoassay kits. From the results of the assay, the activities of the acridone derivatives of inhibiting the liberation of histamine and peptide leukotriene were determined.", "units": {"IC50": "µM"}, "values": [{"smiles": "Cc1ccc2c(c1C)N(CCCN(C)Cc1cccc(Cl)c1O)c1ccccc1[S+]2[O-]", "note": "(stereo not shown) [Example 167]", "IC50": 10}, {"smiles": "Cc1ccc2c(c1C)N(CCCN(C)Cc1ccccc1O)c1cc(C(F)(F)F)ccc1[S+]2[O-]", "note": "(stereo not shown) [Example 187]", "IC50": "10 to 30"}]}, {"tested_on": "human basophils", "assay": "Inhibition of mediator (histamine, peptide leukotriene) liberation from human basophils stimulated with mite antigen", "format": "cell-based", "conditions": "peptide leukotriene, enzyme immunoassay, read-out: IC50 (μM) in mediator liberation from human basophils: leukotriene", "method": "as §3", "units": {"IC50": "µM"}, "values": [{"smiles": "Cc1ccc2c(c1C)N(CCCN(C)Cc1cccc(Cl)c1O)c1ccccc1[S+]2[O-]", "note": "(stereo not shown) [Example 167]", "IC50": 3}, {"smiles": "Cc1ccc2c(c1C)N(CCCN(C)Cc1ccccc1O)c1cc(C(F)(F)F)ccc1[S+]2[O-]", "note": "(stereo not shown) [Example 187]", "IC50": "3 to 10"}]}]}
